Several values for one entry are separate records, joined by “and”; a condition that tells them apart may be missing. Equal entries are not always repeated.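 Results reflect a 48-hour exposure of cells in 96-well plates to compound at five concentrations. At the GI50, growth is halved. TGI marks complete inhibition of growth.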
Assays:
Assay in all cases: NCI-60 cell line screen, 48 h
[1] = test system: RXF 393 renal
[2] = test system: UACC-62 melanoma
[3] = test system: HCC-2998 colon
[4] = test system: OVCAR-3 ovarian
[5] = test system: K-562 leukemia
[6] = test system: HCT-15 colon
[7] = test system: UACC-257 melanoma
[8] = test system: 786-0 renal
[9] = test system: NCI-H522 lung
[10] = test system: SF-268 CNS

Molecule Cc1cc(Br)cc(C)c1NC(=O)C(=O)C(C(=O)c1ccc2ccccc2c1)C1OC(=O)c2ccccc21 (stereo not drawn) has a TGI [1] of 17.8 µM, a TGI [2] of 29.6 µM and a TGI [3] of 24.7 µM. The TGI [4] was > 64.8 µM, the TGI [5] was > 72.9 µM and the TGI [6] was 42.3 µM. For the same molecule, the TGI [7] was 17.5 µM, the TGI [8] was 19.3 µM and the TGI [9] was 22.8 µM.
Clc1ccc2c(NCCCNc3nccc(Nc4ccc(Br)cc4)n3)ccnc2c1 gave a GI50 [10] of 1.73 µM, a TGI [10] of 3.32 µM and a GI50 [2] of 1.88 µM. It also gave a TGI [2] of 3.56 µM, a GI50 [3] of 1.5 µM and a TGI [3] of 2.93 µM. It also gave a GI50 [4] of 1.75 µM, a TGI [4] of 3.23 µM and a GI50 [6] of 1.28 µM. It also gave a TGI [6] of 2.7 µM, a GI50 [7] of 1.87 µM and a TGI [7] of 3.4 µM. The GI50 [8] was 1.75 µM, the TGI [8] was 3.45 µM and the GI50 [9] was 1.93 µM. It also gave a TGI [9] of 3.52 µM.
For CCCCCCCCCC/C=C/CC(=O)SCCNC(=O)CCNC(=O)[C@@H](O)C(C)(C)COP(=O)(O)OP(=O)(O)OCC1OC(n2cnc3c(N)ncnc32)C(O)C1OP(=O)(O)O (stereo partly drawn), the TGI [10] was > 10 µM, the TGI [1] was > 10 µM and the TGI [2] was > 10 µM. The TGI [3] was > 10 µM, the TGI [4] was > 10 µM and the TGI [5] was > 10 µM. For the same molecule, the TGI [6] was > 10 µM, the TGI [7] was > 10 µM and the TGI [8] was > 10 µM.
O=[N+]([O-])c1nccn1CC(O)c1ccc(F)cc1 (stereo not drawn) was tested, and the TGI [10] was > 100 µM, the TGI [1] was > 100 µM and the TGI [2] was > 100 µM. For the same molecule, the TGI [4] was > 100 µM, the TGI [5] was > 100 µM and the TGI [6] was > 100 µM. For the same molecule, the TGI [7] was > 100 µM, the TGI [8] was > 100 µM and the TGI [9] was > 100 µM.
For Cc1ccc(S(=O)(=O)NCC2CCCCC2=O)cc1 (stereo not drawn), the TGI [10] was > 100 µM, the TGI [1] was > 100 µM and the TGI [2] was > 100 µM. For the same molecule, the TGI [4] was > 100 µM, the TGI [5] was > 100 µM and the TGI [6] was > 100 µM. The TGI [7] was 57.7 µM, the TGI [8] was > 100 µM and the TGI [9] was > 100 µM.
In the case of O=C1CN=C(C[N+](=O)[O-])c2ccccc21, the TGI [10] is reported as > 100 µM, the TGI [4] is reported as > 100 µM and the TGI [5] is reported as > 100 µM. For the same molecule, the TGI [6] was > 100 µM, the TGI [7] was > 100 µM and the TGI [8] was > 100 µM. For the same molecule, the TGI [9] was > 100 µM.
In the case of CC(C)(C)OC(=O)NCC(=O)OCc1ccccc1, the TGI [10] is reported as > 100 µM, the TGI [2] is reported as > 100 µM and the TGI [3] is reported as > 100 µM. The TGI [4] was > 100 µM, the TGI [5] was > 100 µM and the TGI [6] was > 100 µM. The TGI [7] was > 100 µM and the TGI [8] was > 100 µM.
In the case of O=S(O)CCCCSSCC(O)C(O)CSSCCCCS(=O)O (stereo not drawn), the TGI [10] is reported as 32.1 µM and 57.9 µM, the TGI [1] is reported as 38 µM and 89.8 µM and the TGI [2] is reported as 25.6 µM and 38.2 µM. The TGI [4] was 23.8 µM and 25.6 µM, the TGI [5] was 60.6 µM and > 100 µM and the TGI [6] was > 100 µM. The TGI [7] was 21.6 µM and 26.7 µM, the TGI [8] was > 100 µM and the GI50 [9] was 6.48 µM and 13 µM. The TGI [9] was 20 µM and 30.4 µM.
For CS(=O)(=O)N/N=C/CN1C(=O)c2ccccc2C1=O, the TGI [10] was > 100 µM, the TGI [2] was > 100 µM and the TGI [3] was > 100 µM. For the same molecule, the TGI [4] was > 100 µM, the TGI [5] was > 100 µM and the TGI [6] was > 100 µM. The TGI [7] was > 100 µM, the TGI [8] was > 100 µM and the TGI [9] was > 100 µM.
With C=CC1CC12C(=O)C1OC2(C)C2C(=O)c3cc4ccccc4cc3C(=O)C12 (stereo not drawn) the GI50 [10] was 26.7 µM, the TGI [10] was > 100 µM and the GI50 [1] was 11.1 µM. The TGI [1] was 38 µM, the GI50 [3] was 24.6 µM and the TGI [3] was > 100 µM. It also gave a GI50 [6] of 11.9 µM, a TGI [6] of 42.7 µM and a GI50 [7] of 21.5 µM. For the same molecule, the TGI [7] was 65.5 µM, the GI50 [8] was 23.4 µM and the TGI [8] was 83 µM. For the same molecule, the GI50 [9] was 29.3 µM and the TGI [9] was > 100 µM.
In the case of CNC(=S)NC1CCCCC1NC(=S)NC (stereo not drawn), the TGI [10] is reported as > 100 µM, the TGI [2] is reported as > 100 µM and the TGI [3] is reported as > 100 µM. The TGI [4] was > 100 µM, the TGI [5] was > 100 µM and the TGI [6] was > 100 µM. For the same molecule, the TGI [8] was > 100 µM and the TGI [9] was > 100 µM.
